According to ChEMBL document CHEMBL1909046, “DrugMatrix in vitro pharmacology data”:
pIC50, pKi: −log10 of the molar value.

How the values were obtained:
[1] = molecular target: Epidermal growth factor receptor (Homo sapiens, UniProt P00533); assay: DRUGMATRIX: Protein Tyrosine Kinase, EGF Receptor enzyme inhibition (substrate: Poly(Glu:Tyr)); type: cell-based, Insect cells; conditions: Not Active = under 50% inhibition at 10 µM; for pIC50: read-out: IC50
[2] = molecular target: Sodium-dependent noradrenaline transporter (Homo sapiens, UniProt P23975); assay: DRUGMATRIX: Norepinephrine Transporter radioligand binding (ligand: [125I] RTI-55); type: cell membranes, MDCK, Membrane; conditions: Not Active = under 50% inhibition at 10 µM; for IC50 / Ki: mdck; for pIC50: read-out: IC50; for pKi: read-out: Ki
[3] = molecular target: Sigma non-opioid intracellular receptor 1 (Homo sapiens, UniProt Q99720); assay: DRUGMATRIX: Sigma1 radioligand binding (ligand: [3H] Haloperidol); type: cell membranes, Jurkat, Membrane; conditions: jurkat; Not Active = under 50% inhibition at 10 µM
D(1A) dopamine receptor = D(1A) dopamine receptor (Homo sapiens, UniProt P21728); assay: DRUGMATRIX: Dopamine D1 radioligand binding (ligand: [3H] SCH-23390); type: cell membranes, CHO, Membrane; conditions: Not Active = under 50% inhibition at 10 µM; for IC50 / Ki: cho
D(4) dopamine receptor = molecular target: T1, D(4) dopamine receptor (Homo sapiens, UniProt P21917); assay: DRUGMATRIX: Dopamine D4.2 radioligand binding (ligand: [3H] Spiperone); type: cell membranes, CHO-K1, Membrane; conditions: cho-k1; Not Active = under 50% inhibition at 10 µM
T1 sequence (P21917 whole entry): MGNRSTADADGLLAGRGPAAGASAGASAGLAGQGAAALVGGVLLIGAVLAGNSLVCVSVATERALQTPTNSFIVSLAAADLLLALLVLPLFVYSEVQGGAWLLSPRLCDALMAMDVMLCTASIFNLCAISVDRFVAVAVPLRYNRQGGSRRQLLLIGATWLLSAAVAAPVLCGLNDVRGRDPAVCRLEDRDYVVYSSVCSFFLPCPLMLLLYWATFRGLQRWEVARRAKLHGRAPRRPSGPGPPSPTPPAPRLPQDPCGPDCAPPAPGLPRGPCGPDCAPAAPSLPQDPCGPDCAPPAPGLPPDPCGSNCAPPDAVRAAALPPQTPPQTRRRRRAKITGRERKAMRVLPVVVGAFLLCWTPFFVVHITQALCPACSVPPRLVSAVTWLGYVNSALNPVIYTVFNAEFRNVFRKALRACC

Sigma non-opioid intracellular receptor 1, sequence (Q99720 whole entry): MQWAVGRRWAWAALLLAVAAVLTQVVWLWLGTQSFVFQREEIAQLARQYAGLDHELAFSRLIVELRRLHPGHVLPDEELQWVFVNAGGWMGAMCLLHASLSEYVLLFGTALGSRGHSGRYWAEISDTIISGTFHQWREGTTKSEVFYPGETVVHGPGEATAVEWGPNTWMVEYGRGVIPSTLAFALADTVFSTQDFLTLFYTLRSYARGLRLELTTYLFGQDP
D(1A) dopamine receptor, sequence (P21728 whole entry): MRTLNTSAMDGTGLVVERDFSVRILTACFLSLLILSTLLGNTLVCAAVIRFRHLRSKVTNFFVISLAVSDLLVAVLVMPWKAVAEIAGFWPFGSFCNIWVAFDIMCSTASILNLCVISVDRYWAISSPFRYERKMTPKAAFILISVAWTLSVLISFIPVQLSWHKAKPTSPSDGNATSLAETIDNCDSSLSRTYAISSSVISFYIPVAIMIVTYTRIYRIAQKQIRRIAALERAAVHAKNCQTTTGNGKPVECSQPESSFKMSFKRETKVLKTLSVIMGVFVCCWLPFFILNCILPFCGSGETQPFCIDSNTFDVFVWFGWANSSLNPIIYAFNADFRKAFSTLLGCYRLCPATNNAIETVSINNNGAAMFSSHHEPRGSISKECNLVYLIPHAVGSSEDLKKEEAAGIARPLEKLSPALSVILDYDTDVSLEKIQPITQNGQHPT
Sodium-dependent noradrenaline transporter, sequence (P23975 whole entry): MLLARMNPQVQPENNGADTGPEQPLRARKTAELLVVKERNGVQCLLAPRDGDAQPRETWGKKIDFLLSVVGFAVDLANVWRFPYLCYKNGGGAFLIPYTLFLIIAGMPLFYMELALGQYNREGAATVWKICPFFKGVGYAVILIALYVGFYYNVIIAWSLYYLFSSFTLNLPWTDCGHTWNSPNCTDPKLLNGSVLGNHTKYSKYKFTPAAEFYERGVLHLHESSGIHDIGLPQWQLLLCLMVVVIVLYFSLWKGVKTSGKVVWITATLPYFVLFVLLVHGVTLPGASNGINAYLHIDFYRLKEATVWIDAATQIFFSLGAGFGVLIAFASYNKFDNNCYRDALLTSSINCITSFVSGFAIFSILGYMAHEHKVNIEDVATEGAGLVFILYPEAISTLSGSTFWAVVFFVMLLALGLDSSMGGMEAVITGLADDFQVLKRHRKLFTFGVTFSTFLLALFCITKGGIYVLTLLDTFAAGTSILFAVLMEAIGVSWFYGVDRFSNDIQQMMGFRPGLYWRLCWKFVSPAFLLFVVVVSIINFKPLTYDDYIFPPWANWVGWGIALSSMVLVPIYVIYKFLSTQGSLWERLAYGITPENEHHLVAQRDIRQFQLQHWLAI

Molecule	IC50 ([1]; insect cells)	IC50 [2]	IC50 [3]	IC50 (D(1A) dopamine receptor)	IC50 (D(4) dopamine receptor)	further results
COc1ccnc(C[S+]([O-])c2nc3ccc(OC(F)F)cc3[nH]2)c1OC (stereo not drawn) [PANTOPRAZOLE]	Not Active	Not Active	Not Active	Not Active	Not Active	–
CCc1ccc(CCOc2ccc(CC3SC(=O)NC3=O)cc2)nc1 (stereo not drawn) [PIOGLITAZONE]	Not Active	Not Active	Not Active	Not Active	Not Active	–
CC[C@H]1[C@@H]2C[C@H]3[C@@H]4N(C)c5ccccc5[C@]45C[C@@H]([C@@H]2[C@H]5O)N3[C@@H]1O [AJMALINE]	Not Active	Not Active	Not Active	Not Active	Not Active	–
CNC1=Nc2ccc(Cl)cc2C(c2ccccc2)=[N+]([O-])C1 [CHLORDIAZEPOXIDE]	Not Active	Not Active	Not Active	Not Active	Not Active	–
Cc1cccc(C)c1NC(=O)C1CCCCN1C (stereo not drawn) [MEPIVACAINE]	Not Active	Not Active	Not Active	Not Active	Not Active	–
CC1=NN(c2ccccc2)C(=O)C1 [EDARAVONE]	Not Active	Not Active	Not Active	Not Active	Not Active	–
CC(C)C[C@H]1C(=O)N2CCC[C@H]2[C@]2(O)O[C@](NC(=O)[C@@H]3C=C4c5cccc6[nH]cc(c56)C[C@H]4N(C)C3)(C(C)C)C(=O)N12 [ERGOCRYPTINE]	Not Active	Not Active	Not Active	–	Not Active	pIC50 (D(1A) dopamine receptor; read-out: IC50): 6.39; pKi (D(1A) dopamine receptor; read-out: Ki): 6.69
Cc1cc(O)cc(C)c1Cl [CHLOROXYLENOL]	Not Active	Not Active	Not Active	Not Active	Not Active	–
CCOC(=O)c1ncn2c1CN(C)C(=O)c1cc(F)ccc1-2 [FLUMAZENIL]	Not Active	Not Active	Not Active	Not Active	Not Active	–
COBALTOUS CHLORIDE	Not Active	Not Active	Not Active	Not Active	Not Active	Ki ([1]; insect cells): Not Active; Ki [2]: Not Active; Ki [3]: Not Active; Ki (D(1A) dopamine receptor): Not Active; Ki (D(4) dopamine receptor): Not Active
COc1ccc2c(c1OC)C(=O)O[C@@H]2[C@H]1c2c(cc3c(c2OC)OCO3)CCN1C [NOSCAPINE]	Not Active	Not Active	Not Active	Not Active	Not Active	–
COLISTIN	–	Not Active	Not Active	Not Active	Not Active	pIC50 ([1]; insect cells): 5.82; Ki [2]: Not Active; Ki [3]: Not Active; Ki (D(1A) dopamine receptor): Not Active; Ki (D(4) dopamine receptor): Not Active
CCN(C(C)=O)c1cccc(-c2ccnc3c(C#N)cnn23)c1 [ZALEPLON]	Not Active	Not Active	Not Active	Not Active	Not Active	–
CN1C(=O)CN=C(c2ccccc2)c2cc([N+](=O)[O-])ccc21 [NIMETAZEPAM]	Not Active	Not Active	Not Active	Not Active	Not Active	–
C[C@@H]1C/C=C/C=C/C=C/C=C/[C@H](O[C@@H]2O[C@H](C)[C@@H](O)[C@H](N)[C@@H]2O)C[C@@H]2O[C@](O)(C[C@@H](O)C[C@H]3O[C@@H]3/C=C/C(=O)O1)C[C@H](O)[C@H]2C(=O)O [NATAMYCIN]	Not Active	Not Active	Not Active	Not Active	Not Active	–
ClC(Cl)(Cl)Cl [CARBON TETRACHLORIDE]	Not Active	Not Active	Not Active	Not Active	Not Active	–
NC12CC3CC(CC(C3)C1)C2 [AMANTADINE]	Not Active	Not Active	Not Active	Not Active	Not Active	–
CC(C)c1c(C(=O)Nc2ccccc2)c(-c2ccccc2)c(-c2ccc(F)cc2)n1CC[C@@H](O)C[C@@H](O)CC(=O)O [ATORVASTATIN]	Not Active	Not Active	Not Active	Not Active	Not Active	–
C[C@]12CC[C@H]3[C@@H](CCC4=CC(=O)CC[C@@H]43)[C@@H]1CC[C@@H]2O [NANDROLONE]	Not Active	Not Active	Not Active	Not Active	Not Active	–

Molecule	IC50 ([1]; insect cells)	IC50 [2]	IC50 [3]	IC50 (D(1A) dopamine receptor)	IC50 (D(4) dopamine receptor)	further results
N=C(N)c1ccc(OCCCCCOc2ccc(C(=N)N)cc2)cc1 [PENTAMIDINE]	Not Active	–	Not Active	Not Active	Not Active	pIC50 [2]: 5.65; pKi [2]: 5.66
CCOc1nc2cccc(C(=O)O)c2n1Cc1ccc(-c2ccccc2-c2nnn[nH]2)cc1	–	–	Not Active	Not Active	Not Active	pIC50 [1]: 5.48; pIC50 [2]: 5.51; pKi [2]: 5.52
COc1cccc2c1C(=O)c1c(O)c3c(c(O)c1C2=O)C[C@@](O)(C(C)=O)C[C@@H]3O[C@H]1C[C@H](N)[C@H](O)[C@H](C)O1 [DAUNORUBICIN]	Not Active	Not Active	Not Active	Not Active	Not Active	–
CC(O)(P(=O)(O)O)P(=O)(O)O [ETIDRONIC ACID]	Not Active	Not Active	Not Active	Not Active	Not Active	–
CC(=O)Oc1ccccc1C(=O)O [ASPIRIN]	Not Active	Not Active	Not Active	Not Active	Not Active	–
O=c1[nH]c(=O)n([C@H]2C[C@H](O)[C@@H](CO)O2)cc1F [FLOXURIDINE]	Not Active	Not Active	Not Active	Not Active	Not Active	–
O=C(O)CC(O)(CC(=O)O)C(=O)O [CITRIC ACID]	Not Active	Not Active	Not Active	Not Active	Not Active	–
CCCCC1=NC2(CCCC2)C(=O)N1Cc1ccc(-c2ccccc2-c2nnn[nH]2)cc1 [IRBESARTAN]	Not Active	Not Active	Not Active	Not Active	Not Active	–
CN(C)C(=N)NC(=N)N [METFORMIN]	Not Active	Not Active	Not Active	Not Active	Not Active	–
C[C@H]1O[C@H](O[C@H]2[C@H](O)[C@@H](O)[C@@H](O[C@H]3[C@H](O)[C@@H](O)C(O)O[C@@H]3CO)O[C@@H]2CO)[C@H](O)[C@@H](O)[C@@H]1N[C@H]1C=C(CO)[C@@H](O)[C@H](O)[C@H]1O (stereo partly drawn) [ACARBOSE]	Not Active	Not Active	Not Active	Not Active	Not Active	–
COc1ccccc1N	Not Active	Not Active	Not Active	Not Active	Not Active	–
CC(O)COC[C@H]1O[C@@H]2O[C@H]3[C@H](O)[C@@H](O)[C@@H](O[C@H]4[C@H](O)[C@@H](O)[C@@H](O[C@H]5[C@H](O)[C@@H](O)[C@@H](O[C@H]6[C@H](O)[C@@H](O)[C@@H](O[C@H]7[C@H](O)[C@@H](O)[C@@H](O[C@H]8[C@H](O)[C@@H](O)[C@@H](O[C@H]1[C@H](O)[C@H]2O)O[C@@H]8COCC(C)O)O[C@@H]7COCC(C)O)O[C@@H]6COCC(C)O)O[C@@H]5COCC(C)O)O[C@@H]4COCC(C)O)O[C@@H]3COCC(C)O (stereo partly drawn) [2-HYDROXYPROPYL-BETA-CYCLODEXTRIN]	Not Active	–	Not Active	Not Active	Not Active	pIC50 [2]: 5.90; pKi [2]: 5.90
N[C@@H](Cn1ccc(=O)c(O)c1)C(=O)O [L-MIMOSINE]	Not Active	Not Active	Not Active	Not Active	Not Active	–
CS(=O)(=O)Nc1ccc([N+](=O)[O-])cc1Oc1ccccc1 [NIMESULIDE]	Not Active	Not Active	Not Active	Not Active	Not Active	–
C[N+](C)(C)C[C@H](O)CC(=O)[O-] [LEVOCARNITINE]	Not Active	Not Active	Not Active	Not Active	Not Active	–
O=C(O)c1cc(-c2ccc(F)cc2F)ccc1O [DIFLUNISAL]	Not Active	Not Active	Not Active	Not Active	Not Active	–
CC(C)(C)NCC(O)COc1cccc2c1CC(O)C(O)C2 (stereo not drawn) [NADOLOL]	Not Active	Not Active	Not Active	Not Active	Not Active	–
CCCNC(=O)NS(=O)(=O)c1ccc(Cl)cc1 [CHLORPROPAMIDE]	Not Active	Not Active	Not Active	Not Active	Not Active	–
